In patent publication US20180064665A1 (UNIVERSITY-INDUSTRY COOPERATION GROUP OF KYUNG HEE …, priority 2015, published 2018):
pIC50: −log10 of the molar value. Like-named read-outs stand apart in the source and are kept apart here.

What was measured:
Type in all cases: cell-based, mouse
[1] = Measurement of cell viability (MTT); settings: mouse, Raw264.7 macrophage cells, Raw264.7 cells, with LPS 1 μg/mL, mean of three measurements, read-out: Cell viability (IC50 for cell toxicity)
Experimental: (§1) Raw264.7 cells (macrophage cell line from mouse) were obtained from Korean Cell Line Bank (KCLB) and cultured in Dulbecco's modified Eagle's medium containing 10% FBS, penicillin (100 units/ml), streptomycin sulfate (100 μg/ml) at 37° C. and 5% CO2 in humidified environment.
(§2) Cells were collected by centrifugation and scraping, and seeded at 1×10^5 cells/well in a 96 well plate containing 100 μl of RPMI 1640 medium with 10% FBS. 3β, 4β-epoxy-8α-isobutyryloxyguaia-1(10), 11, (13)-diene-12.6α-olide was dissolved in dimethylsulfoxide (DMSO) solvent and the concentration of DMSO was not more than 0.1% in all experiments. Next day, test compounds and LPS (1 μg/mL) were added and the plate were cultured for 24 hrs. After washing cells once, 50 μl of the medium containing 5 mg/ml MTT but without FBS was added and cells were cultured at 37° C. for 4 hrs. And then, the medium was removed, formazan blue formed in the cells was dissolved in 100 μl of DMSO, and an absorbance was measured at 540 nm to obtain IC50 values for cell toxicity. […] The results are shown in the above Table 1 and the values are means of three measurements.

[2] = system: PGE2 production; assay: Inhibitory activity on PGE2 production in LPS-treated Raw264.7 cells (PGE2 immunoassay); settings: LPS 1 μg/mL; for pIC50: mean of three measurements, read-out: Inhibition of PGE2 production IC50
Experimental: Raw264.7 cells (macrophage cell line from mouse) were obtained from Korean Cell Line Bank (KCLB) and cultured in Dulbecco's modified Eagle's medium (DMEM) containing 10% Fetal Bovine Serum (FBS), penicillin (100 units/mL), streptomycin sulfate (100 μg/mL) at 37° C. and 5% CO2 in humidified environment. RAW264.7 cells at 5×10^5 cells/mL were seeded at 1 mL/well in 24 wells using DMEM, left overnight, replaced with a fresh medium and then treated with a test compound of an appropriate concentration. The cells were incubated for 1 hr and then treated with LPS at 1 μg/mL and incubated for 24 hrs (or proper period). A supernatant was taken and diluted five times. 150 μL of an analysis buffer was added to Non Specific Binding (NSB) well, and 100 μL of an analysis buffer was added to zero point standard (B0) well. 100 μL of a standard sample was added to the other wells and 50 μL of PGE2 conjugate was added (excluding NSB). 50 μL of PGE2 antibody solution was added and wells were shaken for 2 hrs. Each well was suctioned and washed with a wash buffer five times. Each 200 μL of para-Nitrophenyl phosphate (pNPP) substrate was added to the all wells and the wells were stored in a bench at room temperature for 1 hr. 50 μL of stop solution was added and an absorbance was measured at 405 nm. The amount of PGE2 was quantified using the measured absorbance and a standard curve and compared to a group treated with LPS only to obtain a concentration inhibiting 50% (IC50). The results are shown in the following Table 1 and the presented values are means of three measurements.

[3] = system: Raw264.7 cells; assay: Measurement of cell viability (MTT); settings: with LPS 1 μg/mL, 24 hrs, mean of three measurements, read-out: Cell viability (IC50 for cell toxicity)
Experimental: as §1, §2

Row | Molecule | pIC50 [3] | pIC50 [2] | Inhibition of PGE2 production % ([2]; compound at 0.1 μM) | further results
1 | O=C(Oc1ccccc1)N(NS(=O)(=O)c1ccccc1)c1ccccc1 [Comparative Example 1, N-phenyl-N′-(phenoxycarbonyl)-phenylsulfonhydrazide, reference compound] |  |  |  | IC50 at 24 h [1]: > 10000 nM; pIC50 ([2]; Mus musculus): 5.24; inhibition at 10 µM ([2]; Mus musculus, compound at 10 μM): 84.4%
2 | Cc1ccc(OC(=O)NN(c2ccccc2)S(=O)(=O)c2ccc(C)cc2)cc1 [Example 2, N-phenyl-N′-(4-methylphenoxycarbonyl)-4-methylphenylsulfonhydrazide] | < 5.00 | 6.00 |  | Inhibition of PGE2 production % ([2]; compound at 1 μM): 49.7 (1)^ %
3 | COc1ccccc1OC(=O)NN(c1ccccc1)S(=O)(=O)c1ccc(C)cc1 [Example 3, N-phenyl-N′-(2-methoxyphenoxycarbonyl)-4-methylphenylsulfonhydrazide] | < 7.00 | 7.47 | 91.9 (0.1) % | 
4 | COc1ccc(S(=O)(=O)N(NC(=O)Oc2ccc(OCc3ccccc3)cc2)c2ccccc2)cc1 [Example 4, N-phenyl-N′-(4-benzyloxyphenoxycarbonyl)-4-methoxyphenylsulfonhydrazide] | < 6.00 | 7.30 | 62.8 (0.1) % | 
5 | CCOc1ccc(OC(=O)NN(c2ccccc2)S(=O)(=O)c2ccc(OC)cc2)cc1 [Example 5, N-phenyl-N′-(4-ethoxyphenoxycarbonyl)-4-methoxyphenylsulfonhydrazide] | < 7.00 | 7.69 | 94.1 (0.1) % | 
6 | COc1ccc(S(=O)(=O)N(NC(=O)Oc2ccc(Oc3ccccc3)cc2)c2ccccc2)cc1 [Example 6, N-phenyl-N′-(4-phenoxyphenoxycarbonyl)-4-methoxyphenylsulfonhydrazide] | < 7.00 | 7.77 | 93.4 (0.1) % | 
7 | CCc1ccc(OC(=O)NN(c2ccccc2)S(=O)(=O)c2ccc(OC)cc2)cc1 [Example 7, N-phenyl-N′-(4-ethylphenoxycarbonyl)-4-methoxyphenylsulfonhydrazide] | < 7.00 | 7.55 | 90.9 (0.1) % | 
8 | Cc1ccc(S(=O)(=O)N(NC(=O)Oc2ccc(OCc3ccccc3)cc2)c2ccccc2)cc1 [Example 8, N-phenyl-N′-(4-benzyloxyphenoxycarbonyl)-4-methylphenylsulfonhydrazide] | < 7.00 | 7.49 | 66.6 (0.1) % | 
9 | COc1ccc(S(=O)(=O)N(NC(=O)Oc2ccc3c(c2)CCC3)c2ccccc2)cc1 [Example 9, N-phenyl-N′-(2,3-dihydro-1H-inden-5-oxycarbonyl)-4-methoxyphenylsulfonhydrazide] | < 7.00 | 8.35 |  | Inhibition of PGE2 production % ([2]; compound at 0.01 μM): 79.5 (0.01) %
10 | O=C(NN(c1ccccc1)S(=O)(=O)c1ccc(Cl)cc1)Oc1ccccc1 [Example 10, N-phenyl-N′-phenoxycarbonyl-4-chlorophenylsulfonhydrazide] | < 5.00 | 8.27 |  | Inhibition of PGE2 production % ([2]; compound at 0.01 μM): 81.8 (0.01) %
11 | COc1ccccc1OC(=O)NN(c1ccccc1)S(=O)(=O)c1ccc(Cl)cc1 [Example 11, N-phenyl-N′-(2-methoxyphenoxycarbonyl)-4-chlorophenylsulfonhydrazide] | < 5.00 | 8.45 |  | Inhibition of PGE2 production % ([2]; compound at 0.01 μM): 85.9 (0.01) %
12 | CCc1ccc(OC(=O)NN(c2ccccc2)S(=O)(=O)c2ccc(Cl)cc2)cc1 [Example 12, N-phenyl-N′-(4-ethylphenoxycarbonyl)-4-chlorophenylsulfonhydrazide] | < 5.00 | 8.43 |  | Inhibition of PGE2 production % ([2]; compound at 0.01 μM): 80.5 (0.01) %
13 | CCOc1ccc(OC(=O)NN(c2ccccc2)S(=O)(=O)c2ccc(Cl)cc2)cc1 [Example 13, N-phenyl-N′-(4-ethoxyphenoxycarbonyl)-4-chlorophenylsulfonhydrazide] | < 5.00 | 8.30 |  | Inhibition of PGE2 production % ([2]; compound at 0.01 μM): 74.8 (0.01) %
14 | O=C(NN(c1ccccc1)S(=O)(=O)c1ccc(Cl)cc1)Oc1ccc(Oc2ccccc2)cc1 [Example 14, N-phenyl-N′-(4-phenoxyphenoxycarbonyl)-4-chlorophenylsulfonhydrazide] | < 5.00 | 8.29 |  | Inhibition of PGE2 production % ([2]; compound at 0.01 μM): 67.8 (0.01) %
15 | O=C(NN(c1ccccc1)S(=O)(=O)c1ccc(Cl)cc1)Oc1ccc(OCc2ccccc2)cc1 [Example 15, N-phenyl-N′-(4-benzyloxyphenoxycarbonyl)-4-chlorophenylsulfonhydrazide] | < 5.00 | 8.47 |  | Inhibition of PGE2 production % ([2]; compound at 0.01 μM): 84.5 (0.01) %
16 | CCCc1ccc(S(=O)(=O)N(NC(=O)Oc2ccc(Oc3ccccc3)cc2)c2ccccc2)cc1 [Example 20, N-phenyl-N′-(4-phenoxyphenoxycarbonyl)-4-n-propylphenylsulfonhydrazide] | < 5.00 | 6.87 | 45.4 (0.1) % | 
17 | O=C(NN(c1ccccc1)S(=O)(=O)c1ccc(C(F)(F)F)cc1)Oc1ccc(OCc2ccccc2)cc1 [Example 21, N-phenyl-N′-(4-benzyloxyphenoxycarbonyl)-4-trifluoromethylphenylsulfonhydrazide] | < 7.00 | 7.33 | 65.5 (0.1) % | 
18 | CC(C)(C)c1ccc(S(=O)(=O)N(NC(=O)Oc2ccc(OCc3ccccc3)cc2)c2ccccc2)cc1 [Example 22, N-phenyl-N′-(4-benzyloxyphenoxycarbonyl)-4-t-butylphenylsulfonhydrazide] | < 7.00 | 7.24 | 69.8 (0.1) % | 
19 | CC(C)(C)c1ccc(S(=O)(=O)N(NC(=O)Oc2ccc(Oc3ccccc3)cc2)c2ccccc2)cc1 [Example 23, N-phenyl-N′-(4-phenoxyphenoxycarbonyl)-4-t-butylphenylsulfonhydrazide] | < 6.00 | 7.00 | 67.9 (0.1) % | 
20 | CC(C)c1ccc(S(=O)(=O)N(NC(=O)Oc2ccc(Oc3ccccc3)cc2)c2ccccc2)cc1 [Example 24, N-phenyl-N′-(4-phenoxyphenoxycarbonyl)-4-i-propylphenylsulfonhydrazide] | < 6.00 | 6.89 | 65.4 (0.1) % | 
21 | Cc1ccc(S(=O)(=O)N(NC(=O)Oc2ccc3c(c2)CCC3)c2ccccc2)cc1 [Example 25, N-phenyl-N′-(2,3-dihydro-1H-inden-5-oxycarbonyl)-4-methylphenylsulfonhydrazide] | < 6.00 | 7.18 | 40.4 (0.1) % | 
22 | O=C(NN(c1ccccc1)S(=O)(=O)c1ccc(Cl)cc1)Oc1ccc2c(c1)CCC2 [Example 26, N-phenyl-N′-(2,3-dihydro-1H-inden-5-oxycarbonyl)-4-chlorophenylsulfonhydrazide] | < 6.00 | 7.15 | 45.8 (0.1) % | 
23 | O=C(NN(c1ccccc1)S(=O)(=O)c1ccc(C(F)(F)F)cc1)Oc1ccc2c(c1)CCC2 [Example 27, N-phenyl-N′-(2,3-dihydro-1H-inden-5-oxycarbonyl)-4-trifluorophenylsulfonhydrazide] | < 6.00 | 7.25 | 51.1 (0.1) % | 
24 | Cc1cc(C)c(S(=O)(=O)N(Nc2ccccc2)C(=O)Oc2ccc3c(c2)CCC3)c(C)c1 [Example 28] |  |  |  | IC50 at 24 h [1]: > 1000 nM; pIC50 ([2]; Mus musculus): 7.23; inhibition at 0.1 µM ([2]; Mus musculus, compound at 0.1 μM): 57.2%
25 | N-phenyl-N′-(4-benzyloxyphenoxycarbonyl)-2-mesitylenesulfonhydrazide [Example 17] | < 6.00 | 7.09 | 60.0 (0.1) % | 
26 | N-phenyl-N′-(4-phenoxyphenoxycarbonyl)-2-mesitylenesulfonhydrazide [Example 16] | < 6.00 | 6.75 | 39.8 (0.1) % | 
